# From PubChem BioAssay (NCI)
#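 The compound was tested at five concentrations on cells cultured in 96-well plates, with a 48-hour exposure period. GI50 marks 50% less growth. TGI: concentration producing complete growth inhibition.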
# Columns and labels:
# Assay in all cases: NCI-60 cell line screen, 48 h
# OVCAR-8 ovarian = tested on: OVCAR-8 ovarian
# M14 melanoma = tested on: M14 melanoma
# T-47D breast = tested on: T-47D breast
# A549 NSCLC = tested on: A549 NSCLC
# NCI-H460 lung = tested on: NCI-H460 lung
# SF-295 CNS = tested on: SF-295 CNS
# SN12C renal = tested on: SN12C renal
# NCI/ADR-RES ovarian = tested on: NCI/ADR-RES ovarian
# MCF7 breast = tested on: MCF7 breast
# HCT-116 colon = tested on: HCT-116 colon
# UACC-62 melanoma = tested on: UACC-62 melanoma
# NCI-H226 lung = tested on: NCI-H226 lung
# SK-OV-3 ovarian = tested on: SK-OV-3 ovarian
# PC-3 prostate = tested on: PC-3 prostate
# HT29 colon = tested on: HT29 colon
# BT-549 breast = tested on: BT-549 breast
# LOX IMVI melanoma = tested on: LOX IMVI melanoma
# CCRF-CEM leukemia = tested on: CCRF-CEM leukemia
# U251 CNS = tested on: U251 CNS
# A498 renal = tested on: A498 renal
# SW-620 colon = tested on: SW-620 colon
# HOP-92 NSCLC = tested on: HOP-92 NSCLC
# K-562 leukemia = tested on: K-562 leukemia
# RXF 393 renal = tested on: RXF 393 renal
# SR leukemia = tested on: SR leukemia
# MOLT-4 leukemia = tested on: MOLT-4 leukemia
# SF-539 CNS = tested on: SF-539 CNS
# EKVX NSCLC = tested on: EKVX NSCLC
# ACHN renal = tested on: ACHN renal
# IGROV1 ovarian = tested on: IGROV1 ovarian
# OVCAR-5 ovarian = tested on: OVCAR-5 ovarian
# KM12 colon = tested on: KM12 colon
# SK-MEL-2 melanoma = tested on: SK-MEL-2 melanoma
# DU-145 prostate = tested on: DU-145 prostate
# CAKI-1 renal = tested on: CAKI-1 renal
# UACC-257 melanoma = tested on: UACC-257 melanoma
# 786-0 renal = tested on: 786-0 renal
# MDA-MB-435 = tested on: MDA-MB-435
# COLO 205 colon = tested on: COLO 205 colon
# HOP-62 NSCLC = tested on: HOP-62 NSCLC
# HCC-2998 colon = tested on: HCC-2998 colon
# SF-268 CNS = tested on: SF-268 CNS
# RPMI-8226 leukemia = tested on: RPMI-8226 leukemia
# HCT-15 colon = tested on: HCT-15 colon
# TK-10 renal = tested on: TK-10 renal
# SNB-19 CNS = tested on: SNB-19 CNS
# HL-60(TB) leukemia = tested on: HL-60(TB) leukemia
# SK-MEL-28 melanoma = tested on: SK-MEL-28 melanoma
# NCI-H23 lung = tested on: NCI-H23 lung
# OVCAR-4 ovarian = tested on: OVCAR-4 ovarian
# UO-31 renal = tested on: UO-31 renal
# MALME-3M melanoma = tested on: MALME-3M melanoma
# NCI-H522 lung = tested on: NCI-H522 lung
# SNB-75 CNS = tested on: SNB-75 CNS
# OVCAR-3 ovarian = tested on: OVCAR-3 ovarian
# HS 578T breast = tested on: HS 578T breast
# SK-MEL-5 melanoma = tested on: SK-MEL-5 melanoma
smiles,measurement,setting,value
COc1cc2nc(-c3ccc(Cl)cc3)cc(OCCCN3CCOCC3)c2cc1OC,GI50,OVCAR-8 ovarian,2.15 µM
same,TGI,OVCAR-8 ovarian,> 100 µM
same,GI50,M14 melanoma,0.545 µM
same,TGI,M14 melanoma,2.7 µM
same,GI50,T-47D breast,1.96 µM
same,TGI,T-47D breast,> 100 µM
same,GI50,A549 NSCLC,2.02 µM
same,TGI,A549 NSCLC,> 100 µM
same,GI50,NCI-H460 lung,0.958 µM
same,TGI,NCI-H460 lung,> 100 µM
same,GI50,SF-295 CNS,1.08 µM
same,TGI,SF-295 CNS,2.84 µM
same,GI50,SN12C renal,1.3 µM
same,TGI,SN12C renal,> 100 µM
same,GI50,NCI/ADR-RES ovarian,1.15 µM
same,TGI,NCI/ADR-RES ovarian,> 100 µM
same,GI50,MCF7 breast,2.49 µM
same,TGI,MCF7 breast,> 100 µM
same,GI50,HCT-116 colon,1.59 µM
same,TGI,HCT-116 colon,> 100 µM
same,GI50,UACC-62 melanoma,2.26 µM
same,TGI,UACC-62 melanoma,6.35 µM
same,GI50,NCI-H226 lung,0.997 µM
same,TGI,NCI-H226 lung,4.81 µM
same,GI50,SK-OV-3 ovarian,3 µM
same,TGI,SK-OV-3 ovarian,> 100 µM
same,GI50,PC-3 prostate,2.63 µM
same,TGI,PC-3 prostate,> 100 µM
same,GI50,HT29 colon,0.61 µM
same,TGI,HT29 colon,> 100 µM
same,GI50,BT-549 breast,2.59 µM
same,TGI,BT-549 breast,> 100 µM
same,GI50,LOX IMVI melanoma,0.217 µM
same,TGI,LOX IMVI melanoma,0.593 µM
same,GI50,CCRF-CEM leukemia,3.35 µM
same,TGI,CCRF-CEM leukemia,> 100 µM
same,GI50,U251 CNS,1.92 µM
same,TGI,U251 CNS,> 100 µM
same,GI50,A498 renal,1.59 µM
same,TGI,A498 renal,4.02 µM
same,GI50,SW-620 colon,3.57 µM
same,TGI,SW-620 colon,> 100 µM
same,GI50,HOP-92 NSCLC,1.36 µM
same,TGI,HOP-92 NSCLC,5.17 µM
same,GI50,K-562 leukemia,2.71 µM
same,TGI,K-562 leukemia,> 100 µM
same,GI50,RXF 393 renal,1.12 µM
same,TGI,RXF 393 renal,3.79 µM
same,GI50,SR leukemia,0.414 µM
same,TGI,SR leukemia,> 100 µM
same,GI50,MOLT-4 leukemia,2.85 µM
same,TGI,MOLT-4 leukemia,> 100 µM
same,GI50,SF-539 CNS,2.99 µM
same,TGI,SF-539 CNS,> 100 µM
same,GI50,EKVX NSCLC,1.73 µM
same,TGI,EKVX NSCLC,> 100 µM
same,GI50,ACHN renal,3.64 µM
same,TGI,ACHN renal,> 100 µM
same,GI50,IGROV1 ovarian,0.99 µM
same,TGI,IGROV1 ovarian,> 100 µM
same,GI50,OVCAR-5 ovarian,1.58 µM
same,TGI,OVCAR-5 ovarian,> 100 µM
same,GI50,KM12 colon,3.87 µM
same,TGI,KM12 colon,> 100 µM
NCCN1CCCCCc2ccccc21,TGI,OVCAR-8 ovarian,> 10 µM
same,TGI,SK-MEL-2 melanoma,> 10 µM
same,TGI,DU-145 prostate,> 10 µM
same,TGI,CAKI-1 renal,> 10 µM
same,TGI,UACC-257 melanoma,> 10 µM
same,TGI,786-0 renal,> 10 µM
same,TGI,T-47D breast,> 10 µM
same,TGI,A549 NSCLC,> 10 µM
same,TGI,NCI-H460 lung,> 10 µM
same,TGI,SF-295 CNS,> 10 µM
same,TGI,SN12C renal,> 10 µM
same,TGI,NCI/ADR-RES ovarian,> 10 µM
same,TGI,MCF7 breast,> 10 µM
same,TGI,MDA-MB-435,> 10 µM
same,TGI,HCT-116 colon,> 10 µM
same,TGI,COLO 205 colon,> 10 µM
same,TGI,UACC-62 melanoma,> 10 µM
same,TGI,HOP-62 NSCLC,> 10 µM
same,TGI,NCI-H226 lung,> 10 µM
same,TGI,HCC-2998 colon,> 10 µM
same,TGI,SK-OV-3 ovarian,> 10 µM
same,TGI,PC-3 prostate,> 10 µM
same,TGI,SF-268 CNS,> 10 µM
same,TGI,HT29 colon,> 10 µM
same,TGI,RPMI-8226 leukemia,> 10 µM
same,TGI,LOX IMVI melanoma,> 10 µM
same,TGI,HCT-15 colon,> 10 µM
same,TGI,CCRF-CEM leukemia,> 10 µM
same,TGI,U251 CNS,> 10 µM
same,TGI,TK-10 renal,> 10 µM
same,TGI,A498 renal,> 10 µM
same,TGI,SW-620 colon,> 10 µM
same,TGI,K-562 leukemia,> 10 µM
same,TGI,RXF 393 renal,> 10 µM
same,TGI,SNB-19 CNS,> 10 µM
same,TGI,HL-60(TB) leukemia,> 10 µM
same,TGI,SR leukemia,> 10 µM
same,TGI,MOLT-4 leukemia,> 10 µM
same,TGI,SK-MEL-28 melanoma,> 10 µM
same,TGI,NCI-H23 lung,> 10 µM
same,TGI,SF-539 CNS,> 10 µM
same,TGI,OVCAR-4 ovarian,> 10 µM
same,TGI,UO-31 renal,> 10 µM
same,TGI,EKVX NSCLC,> 10 µM
same,TGI,MALME-3M melanoma,> 10 µM
same,TGI,NCI-H522 lung,> 10 µM
same,TGI,SNB-75 CNS,> 10 µM
same,TGI,ACHN renal,> 10 µM
same,TGI,IGROV1 ovarian,> 10 µM
same,TGI,OVCAR-3 ovarian,> 10 µM
same,TGI,HS 578T breast,> 10 µM
same,TGI,SK-MEL-5 melanoma,> 10 µM
same,TGI,KM12 colon,> 10 µM
